Measured values as given in PMC12670405, “Second-Generation AURKA-Targeting PROTACs: Structural Optimization toward in Vivo Degradation in Neuroblastoma” (Journal of Medicinal Chemistry, 2025).

Experiments:
Experiment in all cases: KINOMEscan scanMAX
Assay type in all cases: binding
Conditions in all cases: read-out: Percent Control
VPS34 = target: T1, VPS34 (Homo sapiens, UniProt Q8NEB9)
T1 construct: purchased Eurofins Discovery (DiscoverX KINOMEscan scanMAX)
Protocol: (§1) The kinome-wide binding assay was performed by Eurofins Discovery using the scanMAX screening platform. More information can be found on the Eurofins Discovery Web site.

PFTK1 = target: T2, PFTK1 (Homo sapiens, UniProt O94921)
T2 construct: purchased Eurofins Discovery (DiscoverX KINOMEscan scanMAX)
Protocol: as §1

CDK3 = target: T3, CDK3 (Homo sapiens, UniProt Q00526)
T3 construct: purchased Eurofins Discovery (DiscoverX KINOMEscan scanMAX)
Protocol: as §1

TIE2 = target: T4, TIE2 (Homo sapiens, UniProt Q02763)
T4 construct: purchased Eurofins Discovery (DiscoverX KINOMEscan scanMAX)
Protocol: as §1

MET(M1250T) = target: T5, MET(M1250T) (Homo sapiens, UniProt P08581, M1250T)
T5 construct: purchased Eurofins Discovery (DiscoverX KINOMEscan scanMAX)
Protocol: as §1

MKK7 = target: T6, MKK7 (Homo sapiens, UniProt O14733)
T6 construct: purchased Eurofins Discovery (DiscoverX KINOMEscan scanMAX)
Protocol: as §1

TBK1 = target: T7, TBK1 (Homo sapiens, UniProt Q9UHD2)
T7 construct: purchased Eurofins Discovery (DiscoverX KINOMEscan scanMAX)
Protocol: as §1

PHKG2 = target: T8, PHKG2 (Homo sapiens, UniProt P15735)
T8 construct: purchased Eurofins Discovery (DiscoverX KINOMEscan scanMAX)
Protocol: as §1

NEK9 = target: T9, NEK9 (Homo sapiens, UniProt Q8TD19)
T9 construct: purchased Eurofins Discovery (DiscoverX KINOMEscan scanMAX)
Protocol: as §1

[1] = target: T10, JAK2(JH1domain-catalytic) (Homo sapiens, UniProt O60674)
T10 construct: JAK2(JH1domain-catalytic); purchased Eurofins Discovery (DiscoverX KINOMEscan scanMAX)
Protocol: as §1

FLT3(K663Q) = target: T11, FLT3(K663Q) (Homo sapiens, UniProt P36888, K663Q)
T11 construct: purchased Eurofins Discovery (DiscoverX KINOMEscan scanMAX)
Protocol: as §1

HPK1 = target: T12, HPK1 (Homo sapiens, UniProt Q92918)
T12 construct: purchased Eurofins Discovery (DiscoverX KINOMEscan scanMAX)
Protocol: as §1

HCK = target: T13, HCK (Homo sapiens, UniProt P08631)
T13 construct: purchased Eurofins Discovery (DiscoverX KINOMEscan scanMAX)
Protocol: as §1

CDK4-cyclinD3 = target: T14, CDK4-cyclinD3 (Homo sapiens, UniProt P11802)
T14 construct: purchased Eurofins Discovery (DiscoverX KINOMEscan scanMAX)
Protocol: as §1

MAP3K2 = target: T15, MAP3K2 (Homo sapiens, UniProt Q9Y2U5)
T15 construct: purchased Eurofins Discovery (DiscoverX KINOMEscan scanMAX)
Protocol: as §1

IKK-alpha = target: T16, IKK-alpha (Homo sapiens, UniProt O15111)
T16 construct: purchased Eurofins Discovery (DiscoverX KINOMEscan scanMAX)
Protocol: as §1

CDKL3 = target: T17, CDKL3 (Homo sapiens, UniProt Q8IVW4)
T17 construct: purchased Eurofins Discovery (DiscoverX KINOMEscan scanMAX)
Protocol: as §1

SRC = target: T18, SRC (Homo sapiens, UniProt P12931)
T18 construct: purchased Eurofins Discovery (DiscoverX KINOMEscan scanMAX)
Protocol: as §1

p38-gamma = target: T19, p38-gamma (Homo sapiens, UniProt P53778)
T19 construct: purchased Eurofins Discovery (DiscoverX KINOMEscan scanMAX)
Protocol: as §1

p38-beta = target: T20, p38-beta (Homo sapiens, UniProt Q15759)
T20 construct: purchased Eurofins Discovery (DiscoverX KINOMEscan scanMAX)
Protocol: as §1

BMPR2 = target: T21, BMPR2 (Homo sapiens, UniProt Q13873)
T21 construct: purchased Eurofins Discovery (DiscoverX KINOMEscan scanMAX)
Protocol: as §1

EGFR = target: T22, EGFR (Homo sapiens, UniProt P00533)
T22 construct: purchased Eurofins Discovery (DiscoverX KINOMEscan scanMAX)
Protocol: as §1

PIK3CA(I800L) = target: T23, PIK3CA(I800L) (Homo sapiens, UniProt P42336, I800L)
T23 construct: purchased Eurofins Discovery (DiscoverX KINOMEscan scanMAX)
Protocol: as §1

EGFR(G719S) = target: T24, EGFR(G719S) (Homo sapiens, UniProt P00533, G719S)
T24 construct: purchased Eurofins Discovery (DiscoverX KINOMEscan scanMAX)
Protocol: as §1

FRK = target: T25, FRK (Homo sapiens, UniProt P42685)
T25 construct: purchased Eurofins Discovery (DiscoverX KINOMEscan scanMAX)
Protocol: as §1

INSR = target: T26, INSR (Homo sapiens, UniProt P06213)
T26 construct: purchased Eurofins Discovery (DiscoverX KINOMEscan scanMAX)
Protocol: as §1

MUSK = target: T27, MUSK (Homo sapiens, UniProt O15146)
T27 construct: purchased Eurofins Discovery (DiscoverX KINOMEscan scanMAX)
Protocol: as §1

GRK1 = target: T28, GRK1 (Homo sapiens, UniProt Q15835)
T28 construct: purchased Eurofins Discovery (DiscoverX KINOMEscan scanMAX)
Protocol: as §1

PRKD3 = target: T29, PRKD3 (Homo sapiens, UniProt O94806)
T29 construct: purchased Eurofins Discovery (DiscoverX KINOMEscan scanMAX)
Protocol: as §1

S6K1 = target: T30, S6K1 (Homo sapiens, UniProt P23443)
T30 construct: purchased Eurofins Discovery (DiscoverX KINOMEscan scanMAX)
Protocol: as §1

CAMK2B = target: T31, CAMK2B (Homo sapiens, UniProt Q13554)
T31 construct: purchased Eurofins Discovery (DiscoverX KINOMEscan scanMAX)
Protocol: as §1

CAMKK1 = target: T32, CAMKK1 (Homo sapiens, UniProt Q8N5S9)
T32 construct: purchased Eurofins Discovery (DiscoverX KINOMEscan scanMAX)
Protocol: as §1

FGFR2 = target: T33, FGFR2 (Homo sapiens, UniProt P21802)
T33 construct: purchased Eurofins Discovery (DiscoverX KINOMEscan scanMAX)
Protocol: as §1

T4 sequence (Q02763 23-1124): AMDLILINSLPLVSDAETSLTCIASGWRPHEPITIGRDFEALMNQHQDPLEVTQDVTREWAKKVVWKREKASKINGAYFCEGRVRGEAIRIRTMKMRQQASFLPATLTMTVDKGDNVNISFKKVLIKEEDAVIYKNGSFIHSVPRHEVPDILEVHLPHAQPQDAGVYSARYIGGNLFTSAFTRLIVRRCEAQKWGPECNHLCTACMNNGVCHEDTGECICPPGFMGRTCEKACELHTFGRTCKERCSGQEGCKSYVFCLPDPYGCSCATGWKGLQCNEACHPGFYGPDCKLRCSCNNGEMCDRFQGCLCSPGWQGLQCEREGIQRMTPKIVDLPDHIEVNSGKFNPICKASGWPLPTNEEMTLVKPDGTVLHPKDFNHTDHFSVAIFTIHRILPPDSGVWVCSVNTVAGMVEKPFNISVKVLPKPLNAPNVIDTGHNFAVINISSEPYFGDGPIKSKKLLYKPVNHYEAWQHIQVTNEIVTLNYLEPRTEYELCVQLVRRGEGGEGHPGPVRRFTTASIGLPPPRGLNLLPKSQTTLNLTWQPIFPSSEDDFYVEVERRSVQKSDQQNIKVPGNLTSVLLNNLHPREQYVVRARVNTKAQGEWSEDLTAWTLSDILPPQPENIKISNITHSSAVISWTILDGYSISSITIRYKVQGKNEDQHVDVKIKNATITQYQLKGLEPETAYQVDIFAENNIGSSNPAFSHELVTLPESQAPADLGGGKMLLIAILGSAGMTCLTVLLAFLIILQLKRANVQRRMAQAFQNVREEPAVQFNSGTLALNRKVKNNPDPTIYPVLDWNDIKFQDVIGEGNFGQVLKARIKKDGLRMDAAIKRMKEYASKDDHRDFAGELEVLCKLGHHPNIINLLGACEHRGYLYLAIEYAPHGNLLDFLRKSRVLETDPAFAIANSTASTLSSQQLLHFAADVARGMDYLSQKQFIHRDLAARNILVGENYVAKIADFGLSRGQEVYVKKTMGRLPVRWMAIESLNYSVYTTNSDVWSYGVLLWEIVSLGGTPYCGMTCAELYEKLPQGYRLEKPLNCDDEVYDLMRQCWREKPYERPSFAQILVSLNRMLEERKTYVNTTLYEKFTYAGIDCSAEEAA
T33 sequence (P21802 22-821): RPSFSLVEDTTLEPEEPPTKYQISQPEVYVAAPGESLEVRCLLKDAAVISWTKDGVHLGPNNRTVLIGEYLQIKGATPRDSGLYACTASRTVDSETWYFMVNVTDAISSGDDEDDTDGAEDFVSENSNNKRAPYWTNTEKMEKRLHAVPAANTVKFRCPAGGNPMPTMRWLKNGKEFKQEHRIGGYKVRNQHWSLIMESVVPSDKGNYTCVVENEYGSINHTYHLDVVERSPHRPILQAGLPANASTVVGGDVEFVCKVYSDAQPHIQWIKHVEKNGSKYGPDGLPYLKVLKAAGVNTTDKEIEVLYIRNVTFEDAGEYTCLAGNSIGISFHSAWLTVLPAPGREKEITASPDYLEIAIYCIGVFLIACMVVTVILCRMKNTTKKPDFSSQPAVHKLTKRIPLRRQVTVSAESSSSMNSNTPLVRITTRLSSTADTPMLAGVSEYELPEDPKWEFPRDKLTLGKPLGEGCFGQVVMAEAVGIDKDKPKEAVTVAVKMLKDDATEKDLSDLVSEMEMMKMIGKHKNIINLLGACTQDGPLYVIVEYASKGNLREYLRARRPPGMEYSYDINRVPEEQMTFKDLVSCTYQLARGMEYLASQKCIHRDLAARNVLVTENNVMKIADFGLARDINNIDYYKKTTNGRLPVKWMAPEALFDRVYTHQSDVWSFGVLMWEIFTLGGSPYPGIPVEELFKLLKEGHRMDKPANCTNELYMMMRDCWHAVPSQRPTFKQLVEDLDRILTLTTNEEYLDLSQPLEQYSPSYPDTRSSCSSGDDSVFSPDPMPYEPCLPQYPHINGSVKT
T14 sequence (P11802 whole entry): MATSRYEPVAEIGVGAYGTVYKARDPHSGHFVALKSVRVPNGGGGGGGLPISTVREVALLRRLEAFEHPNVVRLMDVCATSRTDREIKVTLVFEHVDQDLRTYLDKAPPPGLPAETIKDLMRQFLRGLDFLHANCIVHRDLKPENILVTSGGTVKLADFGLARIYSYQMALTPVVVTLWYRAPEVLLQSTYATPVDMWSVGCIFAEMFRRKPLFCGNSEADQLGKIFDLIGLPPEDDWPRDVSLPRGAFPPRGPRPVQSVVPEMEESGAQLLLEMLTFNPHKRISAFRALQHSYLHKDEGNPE
T14 sequence (P30281 whole entry partner): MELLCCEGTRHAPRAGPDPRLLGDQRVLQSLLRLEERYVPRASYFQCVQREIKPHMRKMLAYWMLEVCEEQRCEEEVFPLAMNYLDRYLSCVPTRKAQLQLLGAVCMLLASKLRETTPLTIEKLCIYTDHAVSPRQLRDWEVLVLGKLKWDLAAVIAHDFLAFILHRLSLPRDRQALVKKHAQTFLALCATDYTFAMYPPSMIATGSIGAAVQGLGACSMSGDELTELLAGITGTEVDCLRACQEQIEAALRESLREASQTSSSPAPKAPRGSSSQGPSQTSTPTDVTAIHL
T17 sequence (Q8IVW4 whole entry): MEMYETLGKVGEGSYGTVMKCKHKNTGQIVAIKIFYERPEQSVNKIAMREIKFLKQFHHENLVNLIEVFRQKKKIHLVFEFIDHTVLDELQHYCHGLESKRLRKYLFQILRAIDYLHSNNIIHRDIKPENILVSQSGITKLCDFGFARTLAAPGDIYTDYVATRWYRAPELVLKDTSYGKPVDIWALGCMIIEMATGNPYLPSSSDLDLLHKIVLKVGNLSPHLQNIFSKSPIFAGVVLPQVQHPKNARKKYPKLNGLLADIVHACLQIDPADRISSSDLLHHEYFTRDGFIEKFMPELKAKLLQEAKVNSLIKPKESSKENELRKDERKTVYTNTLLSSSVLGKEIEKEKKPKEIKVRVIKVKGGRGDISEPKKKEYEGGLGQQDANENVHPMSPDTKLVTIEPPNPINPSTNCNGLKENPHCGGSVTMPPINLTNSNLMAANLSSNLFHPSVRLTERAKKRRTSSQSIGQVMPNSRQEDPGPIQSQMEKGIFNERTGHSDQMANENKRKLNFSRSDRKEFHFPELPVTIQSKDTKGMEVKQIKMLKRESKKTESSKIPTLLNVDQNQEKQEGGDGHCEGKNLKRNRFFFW
T15 sequence (Q9Y2U5 whole entry): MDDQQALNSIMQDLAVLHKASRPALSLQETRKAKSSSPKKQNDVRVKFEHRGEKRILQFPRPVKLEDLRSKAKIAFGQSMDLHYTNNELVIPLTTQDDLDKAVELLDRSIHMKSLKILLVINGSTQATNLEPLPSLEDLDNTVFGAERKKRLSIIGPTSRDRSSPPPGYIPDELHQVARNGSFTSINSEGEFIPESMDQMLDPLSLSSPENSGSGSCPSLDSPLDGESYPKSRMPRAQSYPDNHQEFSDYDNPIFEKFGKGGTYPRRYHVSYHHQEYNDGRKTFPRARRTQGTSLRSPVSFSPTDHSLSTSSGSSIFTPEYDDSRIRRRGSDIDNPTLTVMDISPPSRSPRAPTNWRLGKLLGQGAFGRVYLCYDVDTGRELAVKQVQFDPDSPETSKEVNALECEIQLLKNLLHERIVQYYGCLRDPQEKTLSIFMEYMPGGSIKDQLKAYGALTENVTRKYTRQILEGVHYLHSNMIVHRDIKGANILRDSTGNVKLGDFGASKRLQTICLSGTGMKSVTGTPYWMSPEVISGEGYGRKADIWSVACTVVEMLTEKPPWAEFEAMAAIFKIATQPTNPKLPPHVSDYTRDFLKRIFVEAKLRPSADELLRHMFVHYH
T25 sequence (P42685 whole entry): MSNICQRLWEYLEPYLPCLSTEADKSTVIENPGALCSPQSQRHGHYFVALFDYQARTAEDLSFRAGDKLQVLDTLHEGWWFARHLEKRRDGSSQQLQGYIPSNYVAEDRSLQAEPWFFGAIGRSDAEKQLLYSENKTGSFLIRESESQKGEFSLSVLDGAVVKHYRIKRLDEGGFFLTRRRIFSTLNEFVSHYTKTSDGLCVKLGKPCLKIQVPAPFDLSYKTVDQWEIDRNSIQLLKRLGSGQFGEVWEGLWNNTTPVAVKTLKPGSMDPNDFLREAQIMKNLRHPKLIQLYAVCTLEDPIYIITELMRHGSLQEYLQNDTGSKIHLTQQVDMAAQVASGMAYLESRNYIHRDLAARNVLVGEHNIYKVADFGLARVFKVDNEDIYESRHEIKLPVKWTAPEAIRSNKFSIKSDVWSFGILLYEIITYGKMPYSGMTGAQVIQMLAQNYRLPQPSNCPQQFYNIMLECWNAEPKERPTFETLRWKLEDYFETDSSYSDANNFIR
T32 sequence (Q8N5S9 whole entry): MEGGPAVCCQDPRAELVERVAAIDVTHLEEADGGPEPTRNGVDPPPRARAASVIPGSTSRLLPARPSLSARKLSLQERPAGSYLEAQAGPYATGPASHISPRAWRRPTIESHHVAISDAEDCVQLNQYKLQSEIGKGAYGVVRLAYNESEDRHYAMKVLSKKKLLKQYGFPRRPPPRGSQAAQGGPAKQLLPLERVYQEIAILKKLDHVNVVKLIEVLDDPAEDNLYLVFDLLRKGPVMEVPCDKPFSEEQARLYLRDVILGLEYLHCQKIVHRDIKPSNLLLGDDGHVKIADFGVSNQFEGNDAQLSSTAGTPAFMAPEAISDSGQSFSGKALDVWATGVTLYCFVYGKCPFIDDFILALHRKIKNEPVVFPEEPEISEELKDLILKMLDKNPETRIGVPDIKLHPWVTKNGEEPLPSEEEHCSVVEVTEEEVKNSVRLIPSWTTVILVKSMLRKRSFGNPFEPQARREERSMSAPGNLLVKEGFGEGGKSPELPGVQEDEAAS
T10 sequence (O60674 840-1132 limits assumed): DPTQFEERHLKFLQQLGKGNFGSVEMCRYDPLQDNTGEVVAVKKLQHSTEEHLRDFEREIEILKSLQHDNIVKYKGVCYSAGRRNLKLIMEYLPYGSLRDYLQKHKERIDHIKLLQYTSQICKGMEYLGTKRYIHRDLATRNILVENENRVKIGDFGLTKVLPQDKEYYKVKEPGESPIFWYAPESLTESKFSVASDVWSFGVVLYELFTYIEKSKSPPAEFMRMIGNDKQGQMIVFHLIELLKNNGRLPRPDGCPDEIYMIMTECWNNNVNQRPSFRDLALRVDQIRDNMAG

`Cc1cc(Nc2ccc(F)c(CC3(C(=O)N4CCC(F)(CN5CCN(c6ccc(N7CCC(=O)NC7=O)cn6)CC5)CC4)CCN(Cc4cccc(Cl)c4F)CC3)n2)n[nH]1` [SK5527] showed a remaining binding at 0.1 µM (VPS34; 100 nM) of 92%, a remaining binding at 1 µM (VPS34; 1000 nM) of 39% and a remaining binding at 0.1 µM (PFTK1; 100 nM) of 100%. It also gave a remaining binding at 1 µM (PFTK1; 1000 nM) of 95%, a remaining binding at 0.1 µM (CDK3; 100 nM) of 83% and a remaining binding at 1 µM (CDK3; 1000 nM) of 87%. For the same compound, the remaining binding at 0.1 µM (TIE2; 100 nM) was 100%, the remaining binding at 1 µM (TIE2; 1000 nM) was 100% and the remaining binding at 0.1 µM (MET(M1250T); 100 nM) was 85%. For the same compound, the remaining binding at 1 µM (MET(M1250T); 1000 nM) was 80%, the remaining binding at 0.1 µM (MKK7; 100 nM) was 100% and the remaining binding at 1 µM (MKK7; 1000 nM) was 54%. The remaining binding at 0.1 µM (TBK1; 100 nM) was 99%, the remaining binding at 1 µM (TBK1; 1000 nM) was 85% and the remaining binding at 0.1 µM (PHKG2; 100 nM) was 95%. It also gave a remaining binding at 1 µM (PHKG2; 1000 nM) of 97%, a remaining binding at 0.1 µM (NEK9; 100 nM) of 78% and a remaining binding at 1 µM (NEK9; 1000 nM) of 81%. For the same compound, the remaining binding at 0.1 µM ([1]; 100 nM) was 91%, the remaining binding at 1 µM ([1]; 1000 nM) was 65% and the remaining binding at 0.1 µM (FLT3(K663Q); 100 nM) was 81%. It also gave a remaining binding at 1 µM (FLT3(K663Q); 1000 nM) of 79%, a remaining binding at 0.1 µM (HPK1; 100 nM) of 100% and a remaining binding at 1 µM (HPK1; 1000 nM) of 100%. The remaining binding at 0.1 µM (HCK; 100 nM) was 100%, the remaining binding at 1 µM (HCK; 1000 nM) was 100% and the remaining binding at 0.1 µM (CDK4-cyclinD3; 100 nM) was 100%. For the same compound, the remaining binding at 1 µM (CDK4-cyclinD3; 1000 nM) was 100%, the remaining binding at 0.1 µM (MAP3K2; 100 nM) was 92% and the remaining binding at 1 µM (MAP3K2; 1000 nM) was 73%. For the same compound, the remaining binding at 0.1 µM (IKK-alpha; 100 nM) was 100%, the remaining binding at 1 µM (IKK-alpha; 1000 nM) was 100% and the remaining binding at 0.1 µM (CDKL3; 100 nM) was 100%. The remaining binding at 1 µM (CDKL3; 1000 nM) was 83%, the remaining binding at 0.1 µM (SRC; 100 nM) was 66% and the remaining binding at 1 µM (SRC; 1000 nM) was 33%. For the same compound, the remaining binding at 0.1 µM (p38-gamma; 100 nM) was 97%, the remaining binding at 1 µM (p38-gamma; 1000 nM) was 87% and the remaining binding at 0.1 µM (p38-beta; 100 nM) was 100%. It also gave a remaining binding at 1 µM (p38-beta; 1000 nM) of 99%, a remaining binding at 0.1 µM (BMPR2; 100 nM) of 98% and a remaining binding at 1 µM (BMPR2; 1000 nM) of 50%. For the same compound, the remaining binding at 0.1 µM (EGFR; 100 nM) was 91%, the remaining binding at 1 µM (EGFR; 1000 nM) was 82% and the remaining binding at 0.1 µM (PIK3CA(I800L); 100 nM) was 85%. It also gave a remaining binding at 1 µM (PIK3CA(I800L); 1000 nM) of 74%, a remaining binding at 0.1 µM (EGFR(G719S); 100 nM) of 94% and a remaining binding at 1 µM (EGFR(G719S); 1000 nM) of 100%. For the same compound, the remaining binding at 0.1 µM (FRK; 100 nM) was 100%, the remaining binding at 1 µM (FRK; 1000 nM) was 96% and the remaining binding at 0.1 µM (INSR; 100 nM) was 85%. It also gave a remaining binding at 1 µM (INSR; 1000 nM) of 85%, a remaining binding at 0.1 µM (MUSK; 100 nM) of 97% and a remaining binding at 1 µM (MUSK; 1000 nM) of 95%. For the same compound, the remaining binding at 0.1 µM (GRK1; 100 nM) was 100%, the remaining binding at 1 µM (GRK1; 1000 nM) was 85% and the remaining binding at 0.1 µM (PRKD3; 100 nM) was 100%. For the same compound, the remaining binding at 1 µM (PRKD3; 1000 nM) was 100%, the remaining binding at 0.1 µM (S6K1; 100 nM) was 100% and the remaining binding at 1 µM (S6K1; 1000 nM) was 100%. The remaining binding at 0.1 µM (CAMK2B; 100 nM) was 100%, the remaining binding at 1 µM (CAMK2B; 1000 nM) was 100% and the remaining binding at 0.1 µM (CAMKK1; 100 nM) was 100%. It also gave a remaining binding at 1 µM (CAMKK1; 1000 nM) of 100%, a remaining binding at 0.1 µM (FGFR2; 100 nM) of 100% and a remaining binding at 1 µM (FGFR2; 1000 nM) of 90%.
